Results taken from patent US20110123617A1, “CLIOQUINOL FOR THE TREATMENT OF HEMATOLOGICAL MALIGNANCIES” (priority 2007, published 2011).
Entries after “also recorded” stand apart in the source; their conditions may differ.

Experiments:
[1] = patients, after oral administration; cited from earlier work
[2] = test system: proteasome in normal hematopoietic cells; assay: Proteasome activity in normal hematopoietic cells (PBSC); assay type: cell-based, human
Method: Proteasome activity of primary acute myeloid leukemia (AML) blasts or normal peripheral blood stem cells (PBSC) after twenty hours of treatment with clioquinol (CQ), or an equimolar concentration of […] and CuCl2 (Cu). After treatment, the preferential chymotrypsin-like substrate Suc-LLVY-AMC was added and the rate of free AMC was measured over time with a florescent spectrophotometric plate reader (excitation=380 nm, emission=460 nm). Cellular proteins were extracted from cells with lysis buffer (50 mM HEPES pH 7.5, 150 mM NaCl, 2 mM ATP, and 1% Triton X-100). The chymotrypsin-like activity of the proteasome was measured by incubating equal amounts of protein with the preferential chymotrypsin-like substrate Suc-LLVY-AMC in assay buffer (50 mM Tris-HCl, pH 7.5, 150 mM NaCl) for two hours. After incubation, […] and the rate of free AMC was measured over time with a florescent spectrophotometric plate reader (excitation=380 nm, emission=460 nm). The inventors examined the effect of clioquinol and copper on primary AML cells and normal hematopoietic cells. Primary AML were obtained from the peripheral blood of patients with AML. Normal hematopoietic stem cells (PBSC) were obtained from the peripheral blood of volunteers donating stem cells for allotransplant. […] After incubation, cell lysates were prepared and the enzymatic activity of the proteasome measured as above.

[3] = test system: normal hematopoietic cells; assay: Cell viability (MTS assay), primary normal hematopoietic cells; assay type: cell-based, human; details: normal hematopoietic cells supplemented with copper
Method: (§1) Cell viability of leukemia, myeloma, solid tumor and primary cells forty-eight hours after clioquinol treatment by MTS assay. Cell viability was assessed with the CellTiter96® Aqueous Non-Radioactive Assay kit according to manufactures' instructions (Promega). Apoptosis was measured by flow cytometry to detect cell surface Annexin V expression and propidium iodide (PI) uptake (Biovision, Mountain View, Calif., USA) as previously described (20) The inventors tested the effects of clioquinol on the viability of acute leukemia (n=7), myeloma (n=14), and solid tumor (n=5) cell lines as well as primary AML samples (n=6) and primary normal hematopoietic cells (n=3). Forty-eight hours after incubation, clioquinol induced cell death in 6/7 AML, 12/14 myeloma, 0/5 solid tumor, […] and 0/3 normal hematopoietic cells with an IC50 <20 μM (FIG. 5). Of note, after oral administration of clioquinol, trough serum concentrations of 20 μM can be achieved in patients (32).

[4] = test system: chymotrypsin-like activity of the proteasome; assay: Proteasome activity in cell lysates (Suc-LLVY-AMC cleavage); assay type: biochemical; details: cell lysates from leukemia and myeloma cell lines
Method: A) Proteasome activity of MDAY-D2 and JJN3 cellular extracts after two hours of treatment with clioquinol (CQ), CuCl2 (Cu), or an equimolar concentration of CQ and Cu. After treatment, the preferential chymotrypsin-like substrate Suc-LLVY-AMC was added and the rate of free AMC was measured over time with a florescent spectrophotometric plate reader (excitation=380 nm, emission=460 nm). B) Proteasome activity of intact MDAY-D2 and JJN3 cells after two hours of treatment with clioquinol (CQ), CuCl2 (Cu), or an equimolar concentration of CQ and Cu. After treatment, the preferential chymotrypsin-like substrate Suc-LLVY-AMC was added and the rate of free AMC was measured over time with a florescent spectrophotometric plate reader (excitation=380 nm, emission=460 nm). […] The chymotrypsin-like activity of the proteasome was measured by incubating equal amounts of protein with the preferential chymotrypsin-like substrate Suc-LLVY-AMC in assay buffer (50 mM Tris-HCl, pH 7.5, 150 mM NaCl) for two hours. After incubation, […] and the rate of free AMC was measured over time with a florescent spectrophotometric plate reader (excitation=380 nm, emission=460 nm). […] The chymotrypsin-like activity of the proteasome was measured by monitoring the rate of cleavage of the fluorescent substrate Suc-LLVY-AMC.

p27 = assay: Immunoblotting of p27; assay type: cell-based; details: low micromolar concentrations
Description: A) Effect of increasing concentrations of clioquinol on LP1 and MY5 multiple myeloma cells at twenty hours after clioquinol treatment; determined by SDS-PAGE immunoblotting. B) Effect of increasing concentrations of clioquinol on the G0/G1 ratio in AML3, U937, LP1 and MY5 cells at twenty hours after clioquinol treatment; determined by PI staining and flow cytometry. To prepare cytosolic extracts, NIH3T3 cells and myeloma cells were washed with phosphate-buffered saline (PBS, pH 7.4) and suspending in lysis buffer [10 mM Tris (pH 7.4), 150 mM NaCl, 0.1% Triton X-100, 0.5% sodium deoxycholate, and 5 mM EDTA] containing protease inhibitors (Complete tablets, Roche, Indianapolis, Ind.). Protein concentrations were determined by the Bradford assay. Immunoblot assays were performed by subjecting equal amounts of protein to SDS-PAGE gels followed by transfer to Nitrocellulose membranes. Membranes were probed with polyclonal rabbit anti-human cyclin D2 (0.5 μg/ml, both from Santa Cruz Biotech, Santa Cruz, Calif.), or monoclonal mouse-anti human p21 (1:200 v/v, Santa Cruz Biotech), monoclonal mouse-anti human p27 (1:2,500 v/v BD Transduction Laboratories), polyclonal mouse-anti human ubiquitin (1:2,000 v/v Calbiochem) and monoclonal mouse-anti-β-actin (1:10,000 v/v) (Sigma, St. Lois, Mo.). […] Detection was performed by the Enhanced Chemical Luminescence (ECL) method (Pierce, Rockford, Ill.).

myeloma cell lines = assay: Cell viability (MTS assay), myeloma cell lines; assay type: cell-based; details: 12/14 myeloma cell lines, forty-eight hours; read-out: IC50 (cell death)
Method: as §1

Oc1c(I)cc(Cl)c2cccnc12 [clioquinol, 5-chloro-7-iodo-8-hydroxyquinoline]
trough serum concentrations [1]: 20 µM | enzymatic activity of the proteasome [2]: no effect; also recorded: no proteasomal inhibition was detected | potency of clioquinol [3]: increased the potency of clioquinol | rate of Suc-LLVY-AMC cleavage [4]: inhibited the rate of Suc-LLVY-AMC cleavage | expression of p27 (p27): increased expression | IC50 (myeloma cell lines): < 20 µM
